Laboratory results published in EPA's ToxValDB 9.5.
≈ marks a conversion by molar mass, not a printed value. Where “and” joins values, the source holds several entries; their conditions need not be identical. Identical values can stand only once.

Legend:
Rattus norvegicus = settings: for LC50 / LD50: acute
Oryctolagus sp. = settings: for LD50: acute
Mus musculus = settings: for LD50 / LC50: acute
[1] = chronic, duration: 4 months, inhalation
[2] = chronic, duration: 693 days, oral, diet, Sprague-Dawley
[3] = reproduction developmental, duration: 94 days, oral, diet, Sprague-Dawley, generation: F0
[4] = subchronic, duration: 13 weeks, oral, diet, Sprague-Dawley
[5] = reproduction developmental, duration: 5 days, inhalation, CD1, generation: F0
[6] = subchronic, duration: 13 weeks, oral, diet, Wistar
[7] = subchronic, duration: 13 weeks, oral, diet, ICR

SMILES: C1CCNCC1 [Piperidine]
- LC50 (Rattus norvegicus; inhalation): > 6970 mg/m3
- LOAEL (Rattus norvegicus; [1]): 0.01 mg/L
- NOAEL (Rattus norvegicus; [1]): 0.002 mg/L
- NOAEL (% diet) (Rattus norvegicus; chronic, duration: 50 weeks, oral, drinking water, Sprague-Dawley): 0.09
- LOAEL (Oryctolagus sp.; [1]): 0.01 mg/L
- NOAEL (Oryctolagus sp.; [1]): 0.002 mg/L
- LD50 (Mus musculus; oral, DD): 536 mg/kg and 633 mg/kg

SMILES: CC1COC(=O)O1 (configuration not stated) [Propylene carbonate]
- LD50 (Rattus norvegicus; oral, Sprague-Dawley): > 5000 mg/kg
- NOAEL (Rattus norvegicus; developmental, duration: 6 days, oral, gavage, Sprague-Dawley): 5000 mg/kg-day
- NOAEL (Rattus norvegicus; reproduction developmental, duration: 13 weeks, oral, gavage, Sprague-Dawley, generation: F0): 5000 mg/kg-day
- NOAEL (Rattus norvegicus; reproduction developmental, duration: 13 weeks, oral, gavage, Sprague-Dawley, generation: F1): 5000 mg/kg-day
- NOAEL (Rattus norvegicus; reproduction developmental, duration: 13 weeks, oral, gavage, Sprague-Dawley, generation: F2): 5000 mg/kg-day
- NOAEL (Rattus norvegicus; reproduction developmental, duration: 93 days, inhalation, generation: F0): 1000 mg/m3
- NOAEL (Rattus norvegicus; reproduction developmental, duration: 93 days, inhalation, generation: F1): 1000 mg/m3
- NOAEL (Rattus norvegicus; reproduction developmental, duration: 93 days, inhalation, generation: F2): 1000 mg/m3
- NOAEL (Rattus norvegicus; subchronic, duration: 90 days, oral, gavage, Sprague-Dawley): 5000 mg/kg-day
- LD50 (Oryctolagus sp.; dermal, occlusive, New Zealand): > 3000 mg/kg

SMILES: c1ccc(OP(Oc2ccccc2)Oc2ccccc2)cc1 [Triphenyl phosphite]
- LC50 (Rattus norvegicus; Inhalation, Sherman Wistar): > 6.7 µg/mL
- LD50 (Rattus norvegicus; oral, gavage, Sherman Wistar): 1590 mg/kg
- NOAEL (Rattus norvegicus; reproduction developmental, duration: 16 weeks, oral, gavage, Sprague-Dawley, generation: F0): 15 mg/kg-day
- NOAEL (Rattus norvegicus; reproduction developmental, duration: 16 weeks, oral, gavage, Sprague-Dawley, generation: F1): 15 mg/kg-day
- LD50 (Oryctolagus sp.; dermal, New Zealand): ≥ 2000 mg/kg and ≤ 5000 mg/kg

SMILES: O=c1n(CC2CO2)c(=O)n(CC2CO2)c(=O)n1CC1CO1 (configuration not stated) [Tris(2,3-epoxypropyl)isocyanurate]
- LC50 (Rattus norvegicus; Inhalation, TIF: RAIF (SPF)): > 300 mg/m3
- LC50 (Rattus norvegicus; Inhalation, Tif.RAIF (SPF)): 650 mg/m3
- LD50 (Rattus norvegicus; dermal, Sprague-Dawley): > 3100 mg/kg
- LD50 (Rattus norvegicus; dermal, semiocclusive, Sprague-Dawley): > 2000 mg/kg
- LD50 (Rattus norvegicus; dermal, semiocclusive, TIF. RAIF (SPF)): > 2000 mg/kg
- LC50 (Rattus norvegicus; inhalation, particle, Wistar): > 4.16 µg/mL
- LD50 (Rattus norvegicus; oral, gavage, Sprague-Dawley): 447 mg/kg
- LD50 (Rattus norvegicus; oral, gavage, TIF: RAIF (SPF)): 305 mg/kg
- LOAEL (Rattus norvegicus; [2]): > 100 mg/kg-day
- NOAEL (Rattus norvegicus; [2]): 100 mg/kg-day
- LOAEL (Rattus norvegicus; [3]): > 100 mg/kg-day
- NOAEL (Rattus norvegicus; [3]): 30 mg/kg-day
- LOAEL (Rattus norvegicus; [4]): > 100 mg/kg-day
- NOAEL (Rattus norvegicus; [4]): 30 mg/kg-day
- LC50 (Mus musculus; inhalation, particle, CD1): 2 µg/mL (≈ 6.73 µM)
- LOAEL (Mus musculus; [5]): > 8 mg/m3
- NOAEL (Mus musculus; [5]): > 8 mg/m3

SMILES: NC(CO)(CO)CO [Tromethamine]
- LD50 (Rattus norvegicus; dermal): > 1000 mg/kg
- LD50 (Rattus norvegicus; injection, intravenous): 6000 mg/kg
- LD50 (Rattus norvegicus; oral, gavage, Wistar): > 3000 mg/kg
- NOAEL (Rattus norvegicus; reproduction developmental, duration: 29 days, oral, gavage, Crl:CD(SD), generation: F0): 1000 mg/kg-day
- NOAEL (Rattus norvegicus; reproduction developmental, duration: 29 days, oral, gavage, Crl:CD(SD), generation: F1): 1000 mg/kg-day
- NOAEL (Rattus norvegicus; reproduction developmental, duration: 29 days, oral, gavage, generation: F0): 1000 mg/kg-day
- NOAEL (Rattus norvegicus; reproduction developmental, duration: 29 days, oral, gavage, generation: F1): 1000 mg/kg-day
- NOAEL (Rattus norvegicus; short-term, duration: 20 days, injection, intravenous, Sprague-Dawley): 500 mg/kg-day
- LD50 (Mus musculus; dermal): > 1000 mg/kg
- LD50 (Mus musculus; injection, Intraperitoneal): 3350 mg/kg
- LD50 (Mus musculus; injection, intravenous): 6100 mg/kg
- LD50 (Mus musculus; oral, gavage, Swiss): > 3000 mg/kg

SMILES: C=CF [Vinyl fluoride]
- LOAEL (Rattus norvegicus; subchronic, duration: 90 days, inhalation, Crl:CDABR): 377 mg/m3
- LC50 (Mus musculus; inhalation): 1.3e+06 mg/m3
- LOAEL (Mus musculus; subchronic, duration: 90 days, inhalation, Crl:CD-1 (ICR) BR): 377 mg/m3

SMILES: CCCCC(CC)C(=O)[O-].CCCCC(CC)C(=O)[O-].[Zn+2] (configuration not stated) [Zinc 2-ethylhexoate]
- LC50 (Rattus norvegicus; Inhalation): > 23.2 µg/mL
- LD50 (Rattus norvegicus; oral): ≥ 3550 mg/kg and ≤ 3700 mg/kg
- LD50 (Rattus norvegicus; oral, gavage): ≥ 3550 mg/kg and ≤ 3700 mg/kg
- NOAEL (Rattus norvegicus; short-term, duration: 7 days, oral, gavage, Sprague-Dawley): 1000 mg/kg-day
- LD50 (Oryctolagus sp.; dermal, occlusive): > 5000 mg/kg

SMILES: [Cl][Zn][Cl] [Zinc chloride]
- LOAEL (Rattus norvegicus; short-term, duration: 4 weeks, oral, drinking water, Wistar): 12 mg/kg-day
- LOAEL (Rattus norvegicus; [6]): 2880 mg/kg-day
- NOAEL (Rattus norvegicus; [6]): 288 mg/kg-day
- LD50 (Mus musculus; oral, gavage, Swiss): 1260 mg/kg and 605 mg/kg
- NOAEL (Mus musculus; developmental, duration: 18 days, injection, Intraperitoneal, CF1): 12.5 mg/kg-day
- NOAEL (Mus musculus; reproduction developmental, duration: 18 days, injection, Intraperitoneal, F, CF1): 12.5 mg/kg-day
- LOAEL (Mus musculus; [7]): 5910 mg/kg-day
- NOAEL (Mus musculus; [7]): 591 mg/kg-day

SMILES: O=C([O-])c1ccc2ccccc2c1.O=C([O-])c1ccc2ccccc2c1.[Zn+2] [Zinc naphthenate]
- LD50 (Rattus norvegicus; oral, gavage): > 6000 mg/kg
- LD50 (Rattus norvegicus; oral, gavage, Sprague-Dawley): > 5000 mg/kg
- LOAEL (Rattus norvegicus; developmental, duration: 10 days, oral, gavage, Sprague-Dawley): 938 mg/kg-day
- LOAEL (Rattus norvegicus; reproduction developmental, duration: 10 days, oral, gavage, F, Sprague-Dawley): 500 mg/kg-day and 938 mg/kg-day
- LOAEL (Oryctolagus sp.; subchronic, duration: 90 days, dermal, semiocclusive, New Zealand): 1000 mg/kg-day
